Measured values as given in patent US7241785B2, “Five-membered heterocyclic alkanoic acid derivative” (Takeda Pharmaceutical Company Limited, priority 2001, dated 2007).

Legend:
KKA^y mice [1] = assay: Hypoglycemic and hypolipidemic (hypotriglyceridemic) actions in mice; assay type: in vivo; settings: Mus musculus, po, 96 h, 0.01% in powdery diet, four days
Method: Hypoglycemic and Hypolipidemic (Hypotriglyceridemic) Actions in Mice
Test compounds were mixed in a powdery diet (CE-2, Japan Clea) at the concentration of 0.01%, and freely given to KKA^y mice (11 to 12 weeks old, 5 mice per group), a model of type 2 diabetes mellitus, for four days. During this period, water was given freely. Blood was sampled from orbital venous plexus, and glucose and triglyceride levels in plasma separated from the blood were determined enzymatically using L type Wako Glu2 (Wako Pure Chemical Industries, Ltd.) or L type Wako TG.H (Wako Pure Chemical Industries, Ltd.), respectively.
In the Table, “hypoglycemic action (%)” represents a percent reduction (%) of the blood glucose level in the treatment group when the blood glucose level in the non-treatment group is taken as 100%. In addition, “hypolipidemic action (%)” represents a percent reduction (%) of the blood triglyceride level in the treatment group when the blood triglyceride level in the non-treatment group is taken as 100%.

PPARγ-RXRα heterodimer = target: T1, PPARγ-RXRα heterodimer (Homo sapiens, UniProt P37231); assay: PPARγ-RXRα heterodimer ligand activity (luciferase reporter, PPARγ:RXRα:4ERPP/CHO-K1 cells); assay type: cell-based; settings: concentration for 50% of maximum fold induction of luciferase, 48 hrs
T1 construct: expressed in transfected cells
T1 sequence (P37231 1-477 isoform P37231-2): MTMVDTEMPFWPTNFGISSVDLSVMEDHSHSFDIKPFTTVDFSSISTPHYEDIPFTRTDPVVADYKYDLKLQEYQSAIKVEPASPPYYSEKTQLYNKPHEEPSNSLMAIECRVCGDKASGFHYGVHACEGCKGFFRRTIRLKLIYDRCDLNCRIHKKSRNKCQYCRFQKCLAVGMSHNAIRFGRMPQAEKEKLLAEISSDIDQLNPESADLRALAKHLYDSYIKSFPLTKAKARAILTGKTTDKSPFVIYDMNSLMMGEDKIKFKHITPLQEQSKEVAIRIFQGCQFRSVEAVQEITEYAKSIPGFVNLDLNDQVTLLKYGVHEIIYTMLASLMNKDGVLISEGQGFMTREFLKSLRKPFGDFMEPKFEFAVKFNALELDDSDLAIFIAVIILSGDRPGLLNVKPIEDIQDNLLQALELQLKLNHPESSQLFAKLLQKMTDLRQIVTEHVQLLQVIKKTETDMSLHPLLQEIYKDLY
T1 sequence (P19793 1-462 partner): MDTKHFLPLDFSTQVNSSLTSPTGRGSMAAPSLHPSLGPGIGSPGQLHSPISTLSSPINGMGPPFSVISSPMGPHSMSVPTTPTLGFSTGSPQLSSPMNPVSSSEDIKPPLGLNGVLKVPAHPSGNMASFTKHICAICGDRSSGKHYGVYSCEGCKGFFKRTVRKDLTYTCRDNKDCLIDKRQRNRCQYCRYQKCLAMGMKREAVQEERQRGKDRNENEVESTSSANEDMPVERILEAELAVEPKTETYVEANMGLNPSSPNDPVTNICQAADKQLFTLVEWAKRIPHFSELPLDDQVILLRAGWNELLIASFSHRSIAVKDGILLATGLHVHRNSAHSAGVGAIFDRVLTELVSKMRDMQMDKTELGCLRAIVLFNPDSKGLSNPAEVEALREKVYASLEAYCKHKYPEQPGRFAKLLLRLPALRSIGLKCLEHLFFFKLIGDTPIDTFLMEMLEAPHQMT
Method: (PPARγ-RXRα Heterodimer Ligand Activity)
PPARγ:RXRα:4ERPP/CHO-K1 cells obtained in Reference Example 8a were cultured in HAM F12 medium (manufactured by NISSUI SEIYAKU) containing 10% fetal bovine serum [manufactured by Life Technologies, Inc., USA], seeded in a 96-well white plate [manufactured by Corning Coster Corporation, USA] at the density of 2×10^4 cells/well and cultured in a CO2 gas incubator at 37° C. overnight.
After washing the 96-well white plate with PBS (Phosphate-buffered saline), 90 μl of HAM F12 medium containing 0.1% fatty acid-free bovine serum albumin (BSA) and 10 μl of test compound were added, and the cells were cultured in a CO2 gas incubator at 37° C. for 48 hrs. The medium was removed and 40 μl of PicaGene 7.5 (manufactured by Wako Pure Chemical Industries, Ltd.) was added. After stirring, the luciferase activity was determined using Lumistar [manufactured by BMG Labtechnologies GmbH, Germany].
The fold induction was calculated from the luciferase activity of each test compound when the luciferase activity of the non-treatment group is taken as 1. The values of the test compound concentration and the fold induction were analyzed using PRISM 2.01 (produced by GraphPad Software Inc. USA) to calculate the EC50 values, the effective concentration of a test compound for 50% of the maximum fold induction.
Introduction of Human PPARγ- and RXRα-Expression Plasmid and Reporter Plasmid into CHO-K1 Cell and Establishment of Expressed Cell
After a CHO-K1 cell cultured in a tissue culture flask (750 ml) (produced by Corning Costar Corporation, USA) containing HAM F12 medium (produced by NISSUI SEIYAKU) supplemented with 10% fetal bovine serum (produced by Life Technologies, Inc., USA) was scraped by treating with 0.5 g/L trypsin-0.2 g/L EDTA (ethylenediaminetetraacetic acid) (produced by Life Technologies, Inc., USA), the cell was washed with PBS (phosphate-buffered saline) (produced by Life Technologies, Inc., USA), centrifuged (1000 rpm, 5 minutes), and then suspended in PBS. Subsequently, a DNA was introduced into the cell under the conditions shown below using GENE PULSER (produced by Bio-Rad Laboratories, USA).
Namely, to a cuvette having a 0.4 cm gap, added were 8×10^6 cells and 10 μg of plasmid pVgRXR2-hPPARγ obtained in Reference Example 7a and 10 μg of reporter plasmid pGL3-4ERPP-TK neo obtained in Reference Example 4a, which was subjected to electroporation at the voltage of 0.25 kV under the capacitance of 960 μF. Subsequently, the cell was transferred into a HAM F12 medium containing 10% fetal bovine serum and cultured for 24 hours and then the cell was scraped again and centrifuged, and then suspended in HAM F12 medium containing 10% fetal bovine serum supplemented with 500 μg/ml of GENETICIN, (produced by Life Technologies, Inc., USA) and 250 μg /ml of ZEOCIN (produced by Invitrogen, USA). The obtained suspension was diluted to the density of 10^4 cells/ml and inoculated to a 96-well plate (produced by Corning Costar Corporation, USA), which was cultured in a CO2 gas incubator at 37° C., whereby obtaining a GENETICIN- and ZEOCIN-resistant transformant.
Subsequently, after the transformant cell line thus obtained was cultured in a 24-well plate (produced by Corning Costar Corporation, USA), selected was a cell line in which the luciferase was expressed and induced, i.e., PPARγ:RXRα:4ERPP/CHO-K1 cell by the addition of 10 μM pioglitazone hydrochloride.

KKA^y mice [2] = assay: Total cholesterol lowering action and plasma anti-arteriosclerosis index-enhancing action in mice; assay type: in vivo; settings: Mus musculus, po, 96 h, 0.01% in powdery diet, four days; for change in vivo at 0.01 % in diet: percent increase of index [(HDL cholesterol/total cholesterol)×100] vs non-treatment group (100%); for inhibition in vivo at 0.01 % in diet: percent reduction of total cholesterol level vs non-treatment group (100%)
Method: Total Cholesterol Lowering Action and Plasma Anti-Arteriosclerosis Index-Enhancing Action in Mice
Test compounds were mixed in a powdery diet (CE-2, Japan Clea concentration of 0.01%, and freely given to KKA^y mice (11 to 12 weeks old, 5 mice per group), a model of type 2 diabetes mellitus, for four days. During this period, water was given freely. Blood was sampled from orbital venous plexus, and components in plasma separated from the blood were determined. Total cholesterol levels were determined using L type Wako Cholesterol (Wako Pure Chemical Industries, Ltd.). Precipitation reagent for HDL cholesterol was added to a part of the plasma to precipitate non-HDL lipoprotein, and cholesterol (HDL cholesterol) in the resulting supernatant was determined. The plasma anti-arteriosclerosis index [(HDL cholesterol/total cholesterol)×100] was calculated using these cholesterol levels.
In the Table, “total cholesterol lowering action (%)” represents a percent reduction (%) of the total cholesterol level in the treatment group when the total cholesterol level in the non-treatment group is taken as 100%. In addition, “plasma anti-arteriosclerosis index-enhancing action (%)” represents a percent increase (%) of the plasma anti-arteriosclerosis index in the treatment group when the plasma anti-arteriosclerosis index in the non-treatment group is taken as 100%.

[3] = percent reduction of blood glucose level vs non-treatment group (100%), read-out: Hypoglycemic action (%)
[4] = percent reduction of blood triglyceride level vs non-treatment group (100%), read-out: Hypolipidemic action (%)

SMILES	EC50 (PPARγ-RXRα heterodimer) [µM]	melting point [°C]	inhibition in vivo at 0.01 % in diet (KKA^y mice [1]; [3]) [%]	inhibition in vivo at 0.01 % in diet (KKA^y mice [1]; [4]) [%]	change in vivo at 0.01 % in diet (KKA^y mice [2]) [%]	inhibition in vivo at 0.01 % in diet (KKA^y mice [2]) [%]
Cc1oc(-c2ccccc2)nc1COc1ccc(Cc2nc(-c3ccccc3)c(CCC(=O)O)o2)cc1 [Example 2, 3-[2-[4-(5-methyl-2-phenyl-4-oxazolylmethoxy)benzyl]-4-phenyl-5-oxazolyl]propionic acid]	0.0037	142 to 143	45	52	–	–
Cc1oc(-c2ccccc2)nc1COc1ccc(Cc2nc(-c3ccccc3)c(CCC(=O)O)[nH]2)cc1 [Example 4, 3-[2-[4-(5-methyl-2-phenyl-4-oxazolylmethoxy)benzyl]-4-phenyl-1H-imidazol-5-yl]propionic acid]	0.016	193 to 196	–	–	–	–
Cc1oc(-c2ccccc2)nc1COc1ccc(Cc2nc(CCC(=O)O)c(-c3ccccc3)o2)cc1 [Example 6, 3-[2-[4-(5-methyl-2-phenyl-4-oxazolylmethoxy)benzyl]-5-phenyl-4-oxazolyl]propionic acid]	0.0036	136 to 137	46	62	17	27
Cc1oc(-c2ccccc2)nc1COc1ccc(Cc2nc(CCC(=O)O)c(-c3ccccc3)s2)cc1 [Example 8, 3-[2-[4-(5-methyl-2-phenyl-4-oxazolylmethoxy)benzyl]-5-phenyl-4-thiazolyl]propionic acid]	0.016	119 to 120	43	56	11	17
Cc1oc(-c2ccccc2)nc1COc1ccc(COc2nn(C)cc2CC(=O)O)cc1 [Example 24, [1-methyl-3-[4-(5-methyl-2-phenyl-4-oxazolylmethoxy)benzyloxy]-1H-pyrazol-4-yl]acetic acid]	–	133 to 134	50	22	–	–
Cc1oc(-c2ccccc2)nc1COc1ccc(COc2nn(C)cc2CC(=O)O)cn1 [Example 26, [1-methyl-3-[6-(5-methyl-2-phenyl-4-oxazolylmethoxy)-3-pyridylmethoxy]-1H-pyrazol-4-yl]acetic acid]	0.037	139 to 140	56	53	14	14
Cc1oc(-c2ccco2)nc1COc1ccc(COc2nn(C)cc2CC(=O)O)cn1 [Example 38, [3-[6-[2-(2-furyl)-5-methyl-4-oxazolylmethoxy]-3-pyridylmethoxy]-1-methyl-1H-pyrazol-4-yl]acetic acid]	–	155 to 156	47	36	12	12

The next lines start with results.

EC50 (PPARγ-RXRα heterodimer) [µM]	melting point [°C]	SMILES	inhibition in vivo at 0.01 % in diet (KKA^y mice [1]; [3]) [%]	inhibition in vivo at 0.01 % in diet (KKA^y mice [1]; [4]) [%]	change in vivo at 0.01 % in diet (KKA^y mice [2]) [%]	inhibition in vivo at 0.01 % in diet (KKA^y mice [2]) [%]
–	87 to 88	Cc1oc(-c2ccccc2)nc1COc1ccc(COc2nn(Cc3ccccc3)cc2CC(=O)O)cn1 [Example 40, [1-benzyl-3-[6-(5-methyl-2-phenyl-4-oxazolylmethoxy)-3-pyridylmethoxy]-1H-pyrazol-4-yl]acetic acid]	52	76	22	13
–	91 to 92	Cc1oc(-c2ccccc2)nc1COc1ccc(COc2nn(Cc3ccccc3)cc2CC(=O)O)cc1 [Example 44, [1-benzyl-3-[4-(5-methyl-2-phenyl-4-oxazolylmethoxy)benzyloxy]-1H-pyrazol-4-yl]acetic acid]	53	68	–	–
–	99 to 100	COc1cc(COc2nn(Cc3ccccc3)cc2CC(=O)O)ccc1OCc1nc(-c2ccccc2)oc1C [Example 46, [1-benzyl-3-[3-methoxy-4-(5-methyl-2-phenyl-4-oxazolylmethoxy)benzyloxy]-1H-pyrazol-4-yl]acetic acid]	54	56	–	–
0.0069	180 to 181	Cc1oc(-c2ccccc2)nc1COc1ccc(CCc2oc(-c3ccccc3)nc2CC(=O)O)cc1 [Example 64, [5-[2-[4-(5-methyl-2-phenyl-4-oxazolyl)methoxyphenyl]ethyl]-2-phenyl-4-oxazolyl]acetic acid]	–	–	–	–
